Among the data in patent US11591301B2, “Indoleamine-2,3-dioxygenase inhibitor, preparation method therefor and use thereof” (HINOVA PHARMACEUTICALS INC., priority 2018, dated 2023) are IC50 values, retold here.

In one test the target is human IDO1 protease (Homo sapiens (Human), UniProt P14902). In words: Inhibitory activity against human IDO1 protease (absorbance test method). Format: biochemical. The following applies: IDO1 (His-tag) enzyme, absorbance at 320 nm. The procedure: IDO1 (His-tag) enzyme(BPS Bioscience), L-tryptophan (Sigma), methylene blue (Sigma), Catalase originated from the liver of cattle (Sigma), L-ascorbic acid (Sigma), glycerol (Sigma), potassium dihydrogen phosphate solution (Sigma), Tween 20 (Sigma), automatic sampling platformLiquid handler (Bravo & Echo), microplate ReaderSpectraMax M5e (Molecular Devices).
human IDO1 protease, sequence (P14902 whole entry): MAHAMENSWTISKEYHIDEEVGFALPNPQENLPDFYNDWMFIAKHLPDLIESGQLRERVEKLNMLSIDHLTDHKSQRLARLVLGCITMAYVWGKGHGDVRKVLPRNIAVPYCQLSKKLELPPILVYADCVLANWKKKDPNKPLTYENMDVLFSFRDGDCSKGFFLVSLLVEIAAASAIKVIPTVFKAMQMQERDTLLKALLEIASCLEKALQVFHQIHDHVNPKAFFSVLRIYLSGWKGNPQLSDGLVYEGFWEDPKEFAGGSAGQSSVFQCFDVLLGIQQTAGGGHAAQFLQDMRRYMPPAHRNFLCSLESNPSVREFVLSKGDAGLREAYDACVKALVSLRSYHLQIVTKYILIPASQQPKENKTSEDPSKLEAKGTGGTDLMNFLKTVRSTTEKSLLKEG
2) Test Method of Compounds: The Compounds are Determined by Absorbance Test Method:
The tested compounds are dissolved in DMSO to prepare a high concentration of storage solution. The stock solution of reference compound was diluted with DMSO to prepare a 100× solution. In the first column of the working plate, 8 μL above tested compounds and 8 μL 100× reference compound were respectively added as the highest concentration, and then the highest concentrations were subjected to three times dilution to obtain 11 concentrations and prepare 100× solution. 0.5 μL solution was transferred from the above plate to the detection plate. To each well was added 0.5 μL 100× compound solution. For HPE and ZPE control wells, 0.5 μL 100% DMSO was added. 25 μL 2×IDO1 (His-tag) enzyme solution (containing L-ascorbic acid, methylene blue, and catalase) was added to each well. 25 μL reaction solution without IDO1 (His-tag) enzyme was added into HPE control well. The test plate was centrifugated at 1000 rpm for 1 minute to mix well. Then, the test plate was incubated at room temperature for 30 minutes. 25 μL above 2× substrate (L-tryptophan) solution was added to each well. The test plate was centrifugated at 1000 rpm for 1 minute to mix well. The detection plate was placed on ELISA (SpectraMax M5e), the temperature was set at 25° C., and the absorbance (OD value) was measured at 320 nm every 10 minutes till 60 minutes.
Calculating the increase ratio of absorbance: the slope of the absorbance increase curve from 10 min to 60 min is derived from SpectralMax M5e. The inhibition coefficient of compound was calculated: the inhibition ratio of compound=(the absorbance increase ratio of ZPE control well−the absorbance increase ratio of compound well)/(the absorbance increase ratio of ZPE control well−the absorbance increase ratio of HPE control well)×100. Results was analyzed by Prism 5.0.

The target of test [1] is IDO1 protease activity in Hela cells (Homo sapiens (Human), UniProt P14902). Put plainly: Inhibition of IDO protease in HeLa cells (IDO/kynurenine experiment, IFN-γ induced). The test is classed as cell-based. The settings on record: 10 ng/mL IFN-γ, 48 h, OD480 nm, read-out: IC50, inhibitory activity against IDO1 protease activity in Hela cells. The procedure:
2) Experimental Method for Compound Assay 2.1 Seeding HeLa Cells into 96 Well Plate
The medium was taken out from the flask and the cells were washed with PBS. TrypLE solution was added to the flask to make the cells separate. The cells were further washed once with fresh medium containing 10% FBS, and then re-suspended in the medium until the final concentration was 2.3×10^6/mL. Only cells with activity greater than 90% can be used for detection. HeLa cells were planted into 100 μL suitable growth median 96 well plate at 3000 cells/well. The cells were incubated at 37° C. under 5% CO2 overnight.
The compound was diluted to the concentration of 10 mM with DMSO, that was then continuously diluted 3 times to get 9 concentrations. 5 μL compound was added into 45 μL media as the median dilution (10 times dilution, containing 10% DMSO). 96 μL fresh growth media were added to each well to reach the total volume of 196 μL. 2 μL compound solution was taken from the mid-diluted solution and added to the cells in the wells of the assay plate, and then incubated in a 5% CO2 incubator at 37° C. for 30 minutes. 2 μL human IFN-γ solution was added to reach a total volume of 200 μL, with the final concentration of 10 ng/mL, and the final concentration is 0.1%. The cells were incubated in 5% CO2 incubator at 37° C. for 48 h.
After incubating for another 48 hours in a 5% CO2 incubator at 37° C., 140 μL supernatant was added to each well and transferred to a new 96-well plate. 10 μL of 6.1N CCl3COOH was further added to each well, and incubated at 50° C. for 30 min after sealing. The plate was then centrifuged at 2500 rpm for 10 minutes. 100 μL supernatant in each well was transferred to another 96-well assay plate and mixed with 100 μL of 6% (w/v) p-dimethylaminobenzaldehyde. EnSpire was used to read the plate at OD480 nm.
The average data of HC (high control: 10 ng/mL IFN-γ) and LC (low control: no IFN-γ) were calculated for each screening plate. Percent inhibition of compound well (% inh)=100*(aveHC−cpd well)/(aveHC−ave LC). Finally, GraphPad Prism 6 software was used to calculate the IC50 values of compounds and draw the effect-concentration curve.

IDO1 protease activity in Hela cells, sequence (P14902 whole entry): as above

At human IDO1 protease, “N-(3-bromo-4-fluorophenyl)-N′-hydroxyl-4-((2-(morpholinylsulfamoyl)ethyl)amino)-1,2,5-oxadiazol-3-formamidine [Example 9]” registered an IC50 of 162 nM. On to `O=S(=O)(CCNc1nonc1/C(=N/O)Nc1ccc(F)c(Br)c1)NCC(F)F` [Example 6], for which the IC50 at human IDO1 protease is 87 nM; at human IDO1 protease (listed as 11), 44 nM.

`O=S(=O)(CCCNc1nonc1C(=NO)Nc1ccc(F)c(Br)c1)NO` [Example 21, N-(3-bromo-4-fluorophenyl)-N′-hydroxyl-4-((3-(N-hydroxylsulfamoyl)propyl)amino)-1,2,5-oxadiazol-3-formamidine]: inhibition on human IDO1 protease was half-maximal at 99 nM (IC50). Take `[2H]C([2H])([2H])N(C([2H])([2H])[2H])S(=O)(=O)CCCCNc1nonc1/C(=N/O)Nc1ccc(F)c(Br)c1` [Example 30]: the IC50 in test [1] turned out to be 24 nM. For `O=S(=O)(CCCNc1nonc1C(=NO)Nc1ccc(F)c(Br)c1)NCCO` [Example 16, N-(3-bromo-4-fluorophenyl)-N′-hydroxyl-4-((3-(N-(2-hydroxylethyl)sulfamoyl)propyl)amino)-1,2,5-oxadiazol-3-formamidine], the 50% inhibitory concentration (IC50) on human IDO1 protease turned out to be 51 nM; in test [1] it was 32 nM. In the case of `CCNS(=O)(=O)CCCNc1nonc1C(=NO)Nc1ccc(F)c(Br)c1` [Example 17, N-(3-bromo-4-fluorophenyl)-N′-hydroxyl-4-((3-(N-ethylsulfamoyl)propyl)amino)-1,2,5-oxadiazol-3-formamidine], in test [1], the IC50 was 10 nM.

For the molecule `CONS(=O)(=O)CCCNc1nonc1C(=NO)Nc1ccc(F)c(Br)c1` [Example 20, N-(3-bromo-4-fluorophenyl)-N′-hydroxyl-4-((3-(N-methoxylsulfamoyl)propyl)amino)-1,2,5-oxadiazol-3-formamidine], the midpoint of inhibition against human IDO1 protease, the IC50, lay at 99 nM. Regarding `O=S(=O)(CCCNc1nonc1C(=NO)Nc1ccc(F)c(Br)c1)NC1CC1` [Example 14, N-(3-bromo-4-fluorophenyl)-N′-hydroxyl-4-((3-(N-cyclopropylsulfamoyl)propyl)amino)-1,2,5-oxadiazol-3-formamidine], the concentration for half-maximal inhibition (IC50) stood at 99 nM against human IDO1 protease and 37 nM in test [1]. Take `[2H]C([2H])([2H])NS(=O)(=O)CCCSc1nonc1/C(=N/O)Nc1cccc(Br)c1F` [Example 33, N-(3-bromo-2-fluorophenyl)-N′-hydroxyl-4-((3-(N-trideuteratedmethylsulfamoyl)propyl)sulfur)-1,2,5-oxadiazol-3-formamidine]: the IC50 in test [1] turned out to be 69 nM. The same measure, in the same setting: the figure for `[2H]C([2H])([2H])NS(=O)(=O)CCCCNc1nonc1/C(=N/O)Nc1ccc(F)c(Br)c1` [Example 29, N-(3-bromo-4-fluorophenyl)-N′-hydroxyl-4-((4-(N-deuteratedmethylsulfamoyl)butyl)amino)-1,2,5-oxadiazol-3-formamidine] is 20 nM. Take `O=S(=O)(CCNc1nonc1C(=NO)Nc1ccc(F)c(Br)c1)NCCO` [Example 5, N-(3-bromo-4-fluorophenyl)-N′-hydroxyl-4-((2-(N-(2-hydroxylethyl)sulfamoyl)ethyl)amino)-1,2,5-oxadiazol-3-formamidine]: the IC50 at human IDO1 protease was determined as 49 nM; in test [1], 15 nM.

On to `O=S(=O)(CCCCNc1nonc1/C(=N/O)Nc1ccc(F)c(Br)c1)N1CC(F)C1` [Example 26, N-(3-bromo-4-fluorophenyl)-4-((4-((3-fluorazetidin-1-yl)sulfonyl)butyl)amino)-N′-hydroxyl-1,2,5-oxadiazol-3-amide], for which the half-inhibitory concentration (IC50) in test [1] worked out at 113 nM.

On to `O=S(=O)(CCCCNc1nonc1/C(=N/O)Nc1ccc(F)c(Br)c1)N1CCC1` [Example 25, 4-((4-(azetidin-1-ylsulfonyl)butyl)amino)-N-(3-bromo-4-fluorophenyl)-N′-hydroxyl-1,2,5-diazol-3-formamidine], for which the IC50 in test [1] is 93 nM. Take `[2H]C([2H])([2H])N(C([2H])([2H])[2H])S(=O)(=O)CCCNc1nonc1/C(=N/O)Nc1ccc(F)c(Br)c1` [Example 28]: the IC50 on human IDO1 protease came out at 106 nM; in test [1] it was 16 nM.

`CNS(=O)(=O)CCNc1nonc1C(=NO)Nc1ccc(F)c(Br)c1` [Example 2, N-(3-bromo-4-fluorophenyl)-N′-hydroxyl-4-((2-(N-methylsulfamoyl)ethyl)amino)-1,2,5-oxadiazol-3-formamidine]: the IC50 was found to be 54 nM on human IDO1 protease and 19 nM in test [1]. On human IDO1 protease, `CC(C)NS(=O)(=O)CCNc1nonc1C(=NO)Nc1ccc(F)c(Br)c1` [Example 4, N-(3-bromo-4-fluorophenyl)-N′-hydroxyl-4-((2-(isopropylsulfamoyl)ethyl)amino)-1,2,5-oxadiazol-3-formamidine] gave a half-maximal inhibitory concentration (IC50) of 185 nM. On to `CN(C)S(=O)(=O)CCNc1nonc1/C(=N/O)Nc1ccc(F)c(Br)c1` [Example 7, N-(3-bromo-4-fluorophenyl)-N′-hydroxyl-4-((2-N,N-dimethylsulfamoylethyl)amino)-1,2,5-oxadiazol-3-formamidine], for which, at human IDO1 protease, 115 nM corresponded to half-maximal inhibition (IC50).

For `[2H]C([2H])([2H])NS(=O)(=O)CCCSc1nonc1/C(=N/O)Nc1ccc(F)c(Br)c1` [Example 32], the 50% inhibitory concentration (IC50) in test [1] turned out to be 17 nM. Take `CC(C)NS(=O)(=O)CCCNc1nonc1/C(=N/O)Nc1ccc(F)c(Br)c1` [Example 13, N-(3-bromo-4-fluorophenyl)-N′-hydroxyl-4-((3-(N-isopropylsulfamoyl)propyl)amino)-1,2,5-oxadiazol-3-formamidine]: the IC50 turned out to be 63 nM against human IDO1 protease and 30 nM in test [1].

With `NS(=O)(=O)CCOCCNc1nonc1/C(=N/O)Nc1ccc(F)c(Br)c1` [Example 31, N-(3-bromo-4-fluorophenyl)-N′-hydroxyl-4-(2-(2-aminosulfonylethoxyl)-ethylamine)-1,2,5-diazol-3-formamidine], in test [1], the IC50 came to 68 nM. Consider `CCNS(=O)(=O)CCNc1nonc1C(=NO)Nc1ccc(F)c(Br)c1` [Example 3, N-(3-bromo-4-fluorophenyl)-N′-hydroxyl-4-((2-(N-ethylsulfamoyl)ethyl)amino)-1,2,5-oxadiazol-3-formamidine], for which the values for the IC50 (against human IDO1 protease; in test [1]) were 74 nM and 35 nM, respectively.

By IC50 is commonly meant the point on the concentration scale where inhibition reaches its midpoint.
